Here are results for nine molecules from PubChem BioAssay (NCI).

Among the test systems are KM20L2 colon; SNB-78 CNS; P388 leukemia; M19-MEL melanoma; SN12K1 renal; BT-549 breast; 786-0 renal; T-47D breast; LXFL 529 NSCLC; HOP-18 NSCLC.
Holding throughout (experiment): NCI tumour cell line growth inhibition, 48 h

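Assay format: 96-well plates, 48-hour exposure. TGI is the concentration that stops growth completely.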

In the case of `NCCCCCC(CCN)SCC1OC(n2cnc3c(N)ncnc32)C(O)C1O` (stereo not drawn), the TGI in the assay on KM20L2 colon, in the assay on SNB-78 CNS, in the assay on P388 leukemia, in the assay with M19-MEL melanoma and with SN12K1 renal was over 1500 µM throughout.
In the case of `COC(=O)/C=C1\SC2(OC1=Nc1ccccc1)C1CC3CC(C1)CC2C3` (stereo not drawn), in the assay on BT-549 breast, the TGI was over 100 µM.
On to `O=C(O)C(Cc1cc(I)c(O)c(I)c1)C1CCCCC1` (stereo not drawn), for which the TGI in the assay with 786-0 renal, in the assay with BT-549 breast and with T-47D breast was over 100 µM each time.
For `CCOc1ccc(/C=C2\N=C(c3ccccc3)OC2=O)cc1`, in the assay with BT-549 breast, the TGI is over 100 µM.
Take `O=C1c2cc(Br)ccc2-c2ccc3c4ccc5c6c(ccc(c7ccc1c2c73)c64)C(=O)c1cc(Br)ccc1-5`: the TGI in the assay on 786-0 renal, with BT-549 breast and in the assay with T-47D breast was over 100 µM throughout.
In the case of `CN1C2CCC1/C(=C/c1cccc3c1OCO3)C(=O)/C2=C\c1cccc2c1OCO2`, the TGI in the assay with KM20L2 colon, with M19-MEL melanoma and in the assay with LXFL 529 NSCLC was over 100 µM in each case.
Take `CC(=O)CCC#Cc1ccccc1C(=O)C(C)=[N+]=[N-]`: the TGI in the assay on KM20L2 colon and with HOP-18 NSCLC was over 100 µM throughout.
Consider `CC(C)(C)[Si](C)(C)OCC1OC(n2cnc3c(N)ncnc32)C2OC(=S)OC12` (stereo not drawn), for which the TGI with BT-549 breast turned out to be 74.7 µM.
On to `COc1ccc(-c2cc(N3CCN(c4ccc(Cl)cc4)CC3)c(C#N)c(=O)o2)cc1`, for which the TGI in the assay with KM20L2 colon was over 100 µM; in the assay with SNB-78 CNS, 34.2 µM; in the assay with LXFL 529 NSCLC, 70.5 µM; in the assay with HOP-18 NSCLC, 44.3 µM.
